Measurements reported in patent publication US4398029A, “Quinoline carboxylic acid derivatives and process for the preparation” (Kyorin Seiyaku Kabushiki Kaisha, priority 1981, dated 1983).
In brackets after ≈: the same amount, converted by molar mass. Like-named read-outs stand apart in the source and are kept apart here.

Legend:
[1] = tested on: Acinetobacter anitratus IID 876; assay: Antibacterial activity (MIC), standard agar dilution streak method; assay type: cell-based; settings: Acinetobacter calcoaceticus, IID876, read-out: Minimum inhibitory concentration
Method: (§1) The antibacterial activities of the compounds of the present invention were assayed by the standard agar dilution streak method against Gram-positive and Gram-negative bacteria [Chemotherapy, 22, 1126 (1974)].

[2] = tested on: Alcaligenes faecalis 0104002; assay: as above; assay type: cell-based; settings: for MIC: read-out: Minimum inhibitory concentration
Method: as §1

[3] = tested on: Bacillus subtilis PCI 219; assay: as above; assay type: cell-based; settings: PCI219; Bacillus subtilis PCI 219; read-out: Minimum inhibitory concentration
Method: as §1

[4] = tested on: Citrobacter freundii IID 976; assay: as above; assay type: cell-based; settings: read-out: Minimum inhibitory concentration
Method: as §1

[5] = tested on: Enterobacter cloacae IID 977; assay: as above; assay type: cell-based; settings: read-out: Minimum inhibitory concentration
Method: as §1

[6] = tested on: Escherichia coli NIHJ JC-2; assay: as above; assay type: cell-based; settings: for MIC: read-out: Minimum inhibitory concentration
Method: as §1

[7] = tested on: Klebsiella pneumoniae IFO 3512; assay: as above; assay type: cell-based; settings: read-out: Minimum inhibitory concentration
Method: as §1

[8] = tested on: P. mirabilis IID 994; assay: as above; assay type: cell-based; settings: Proteus mirabilis, IID994; P. mirabilis IID 994; read-out: Minimum inhibitory concentration
Method: as §1

[9] = tested on: P. morganii IID 602; assay: as above; assay type: cell-based; settings: Morganella morganii, IID602, P. morganii IID 602; read-out: Minimum inhibitory concentration
Method: as §1

[10] = tested on: Pseudomonas aeruginosa V-1; assay: as above; assay type: cell-based; settings: read-out: Minimum inhibitory concentration
Method: as §1

[11] = tested on: S. epidermidis IID 866; assay: as above; assay type: cell-based; settings: Staphylococcus epidermidis, IID866, read-out: Minimum inhibitory concentration
Method: as §1

[12] = tested on: Salmonella enteritidis IID 604; assay: as above; assay type: cell-based; settings: Salmonella enterica; Salmonella enteritidis IID 604; read-out: Minimum inhibitory concentration
Method: as §1

[13] = tested on: Serratia marcescens IID 618; assay: as above; assay type: cell-based; settings: for MIC: read-out: Minimum inhibitory concentration
Method: as §1

[14] = tested on: Staphylococcus aureus 209 p; assay: as above; assay type: cell-based; settings: Staphylococcus aureus 209 p; for MIC: read-out: Minimum inhibitory concentration
Method: as §1

[15] = tested on: Yersinia enterocolitica IID 981; assay: as above; assay type: cell-based; settings: read-out: Minimum inhibitory concentration
Method: as §1

[16] = tested on: S. aureus Terajima; assay: as above; assay type: cell-based, Staphylococcus aureus; settings: Staphylococcus aureus; S. aureus Terajima; read-out: Minimum inhibitory concentration
Method: as §1

[17] = tested on: E. coli ATCC 10536; assay: as above; assay type: cell-based, Escherichia coli; settings: for MIC: Escherichia coli, ATCC10536, read-out: Minimum inhibitory concentration
Method: as §1

[18] = tested on: Shigella sonnei IID 969; assay: microbe, parasite or virus in culture; assay type: cell-based; settings: Shigella sonnei
Method: as §1

[19] = tested on: P. aeruginosa IFO 12689; assay: Antibacterial activity (MIC), standard agar dilution streak method; assay type: cell-based, Pseudomonas aeruginosa; settings: Pseudomonas aeruginosa, IFO12689, P. aeruginosa IFO 12689; read-out: Minimum inhibitory concentration
Method: as §1

[20] = tested on: Proteus vulgaris 3167; assay: as above; assay type: cell-based; settings: read-out: Minimum inhibitory concentration
Method: as §1

[21] = IID976, Citrobacter freundii IID 976
[22] = IID977, Enterobacter cloacae IID 977
[23] = NIHJJC2, Escherichia coli NIHJ JC-2
[24] = IFO3512, Klebsiella pneumoniae IFO 3512
[25] = Pseudomonas aeruginosa, V1, Pseudomonas aeruginosa V-1
[26] = IID618, Serratia marcescens IID 618
[27] = IID981, Yersinia enterocolitica IID 981
[28] = IID969, Shigella sonnei IID 969, read-out: Minimum inhibitory concentration
[29] = Alcaligenes faecalis, 0104002, Alcaligenes faecalis 0104002
[30] = Citrobacter freundii, IID976, Citrobacter freundii IID 976
[31] = Escherichia coli, NIHJJC2, Escherichia coli NIHJ JC-2
[32] = Klebsiella pneumoniae, IFO3512, Klebsiella pneumoniae IFO 3512
[33] = Proteus vulgaris, 3167, Proteus vulgaris 3167
[34] = Serratia marcescens, IID618, Serratia marcescens IID 618
[35] = Yersinia enterocolitica, IID981, Yersinia enterocolitica IID 981

Row | Compound | MIC [1] [µg/mL] | MIC ([2]; Alcaligenes faecalis 0104002) [µg/mL] | MIC [3] [µg/mL] | MIC [4, 21] [µg/mL] | MIC [5, 22] [µg/mL] | MIC [6, 23] [µg/mL] | MIC [7, 24] [µg/mL] | MIC [8] [µg/mL] | MIC [9] [µg/mL] | MIC [10, 25] [µg/mL] | MIC [11] [µg/mL] | MIC [12] [µg/mL] | MIC [13, 26] [µg/mL] | MIC [14] [µg/mL] | MIC [15, 27] [µg/mL] | MIC [16] [µg/mL] | MIC [17] [µg/mL] | MIC [18, 28] [µg/mL] | MIC [19] [µg/mL] | MIC ([20]; Proteus vulgaris 3167) [µg/mL] | further results
1 | Cl.Cn1cc(C(=O)O)c(=O)c2cc(F)c(N3CCNCC3)c(F)c21 [Example 1, 6,8-Difluoro-1,4-dihydro-1-methyl-4-oxo-7-(1-piperazinyl)quinoline-3-carboxylic acid hydrochloride] | 1.56 | 6.25 | 0.39 | ≤ 0.05 | 0.1 | ≤ 0.05 | ≤ 0.05 | 0.1 | 0.2 | 3.13 | 3.13 | 0.1 | 0.1 | 3.13 | 0.1 | 3.13 | 0.1 | ≤ 0.05 | 1.56 | – | –
2 | CCCn1cc(C(=O)O)c(=O)c2cc(F)c(N3CCNCC3)c(F)c21.Cl [Example 2, 6,8-Difluoro-1,4-dihydro-4-oxo-7-(1-piperazinyl)-1-n-propylquinoline-3-carboxylic acid hydrochloride] | 1.56 | 1.56 | 0.2 | 0.2 | 0.78 | ≤ 0.05 | 0.1 | 0.1 | 0.39 | 12.5 | 3.13 | 0.2 | 0.39 | 1.56 | 0.39 | 3.13 | 0.2 | – | 6.25 | ≤ 0.05 | MIC ([18]; IID969, read-out: Minimum inhibitory concentration): 0.1 µg/mL
3 | C=CCn1cc(C(=O)O)c(=O)c2cc(F)c(N3CCNCC3)c(F)c21.Cl [Example 3, 1-Allyl-6,8-difluoro-1,4-dihydro-4-oxo-7-(1-piperazinyl)quinoline-3-carboxylic acid hydrochloride] | 3.13 | 3.13 | 0.39 | 0.2 | 0.78 | – | 0.1 | 0.2 | 0.39 | 12.5 | 3.13 | 0.2 | 0.39 | 3.13 | 0.39 | 3.13 | 0.39 | 0.1 | 6.25 | 0.1 | –
4 | Cl.O=C(O)c1cn(CCF)c2c(F)c(N3CCNCC3)c(F)cc2c1=O [Example 4, 6,8-Difluoro-1-(2-fluoroethyl)-1,4-dihydro-4-oxo-7-(1-piperazinyl)quinoline-3-carboxylic acid hydrochloride] | 3.13 | 3.13 | 0.39 | ≤ 0.05 | ≤ 0.05 | ≤ 0.05 | ≤ 0.05 | ≤ 0.05 | 0.2 | 6.25 | 1.56 | 0.05 | 0.39 | 3.13 | 0.05 | 3.13 | 0.1 | ≤ 0.05 | 1.56 | ≤ 0.05 | –
5 | CN1CCN(c2c(F)cc3c(=O)c(C(=O)O)cn(CCF)c3c2F)CC1.Cl [Example 5, 6,8-Difluoro-1-(2-fluoroethyl)-1,4-dihydro-7-(4-methyl-1-piperazinyl)-4-oxoquinoline-3-carboxylic acid hydrochloride] | 0.39 | – | 0.1 | – | – | – | – | ≤ 0.05 | 0.1 | – | 0.78 | – | – | 0.78 | – | 0.78 | 0.1 | ≤ 0.05 | 3.13 | – | MIC [2, 29]: 0.78 µg/mL; MIC [4, 30]: ≤ 0.05 µg/mL; MIC ([5]; Enterobacter cloacae, IID977, Enterobacter cloacae IID 977): 0.1 µg/mL; MIC [6, 31]: ≤ 0.05 µg/mL; MIC [7, 32]: ≤ 0.05 µg/mL; MIC [20, 33]: ≤ 0.05 µg/mL; MIC ([10]; V1, Pseudomonas aeruginosa V-1): 3.13 µg/mL; MIC [13, 34]: 0.1 µg/mL; MIC [15, 35]: 0.1 µg/mL
6 | C=CCN1CCN(c2c(F)cc3c(=O)c(C(=O)O)cn(CC)c3c2F)CC1 [Example 6, 7-(4-Allyl-1-piperazinyl)-1-ethyl-6,8-difluoro-1,4-dihydro-4-oxoquinoline-3-carboxylic acid] | 0.78 (≈ 2.07 µM) | – | 0.1 (≈ 0.265 µM) | – | 1.56 (≈ 4.13 µM) | – | – | 0.39 (≈ 1.03 µM) | 0.78 (≈ 2.07 µM) | – | 0.78 (≈ 2.07 µM) | 1.56 (≈ 4.13 µM) | – | 0.78 (≈ 2.07 µM) | – | 0.78 (≈ 2.07 µM) | 0.39 (≈ 1.03 µM) | 0.2 (≈ 0.53 µM) | 25 (≈ 66.2 µM) | – | MIC [2, 29]: 3.13 µg/mL (≈ 8.29 µM); MIC [4, 30]: 0.78 µg/mL (≈ 2.07 µM); MIC [6, 31]: 0.1 µg/mL (≈ 0.265 µM); MIC [7, 32]: ≤ 0.05 µg/mL; MIC [20, 33]: 0.2 µg/mL (≈ 0.53 µM); MIC ([10]; V1, Pseudomonas aeruginosa V-1): 12.5 µg/mL (≈ 33.1 µM); MIC [13, 34]: 1.56 µg/mL (≈ 4.13 µM); MIC [15, 35]: 0.78 µg/mL (≈ 2.07 µM)
7 | CCn1cc(C(=O)O)c(=O)c2cc(F)c(N3CCC(O)CC3)c(F)c21 [Example 9, 1-Ethyl-6,8-difluoro-1,4-dihydro-7-(4-hydroxy-1-piperidinyl)-4-oxoquinoline-3-carboxylic acid] | 1.56 (≈ 4.43 µM) | – | ≤ 0.05 | – | – | – | – | – | 0.78 (≈ 2.21 µM) | 6.25 (≈ 17.7 µM) | 0.39 (≈ 1.11 µM) | 1.56 (≈ 4.43 µM) | – | – | – | 0.2 (≈ 0.568 µM) | – | 0.2 (≈ 0.568 µM) | 12.5 (≈ 35.5 µM) | – | Minimum inhibitory concentration ([2]; Alcaligenes faecalis 0104002): 1.56 µg/mL (≈ 4.43 µM); MIC [4, 30]: 0.78 µg/mL (≈ 2.21 µM); Minimum inhibitory concentration ([6]; Escherichia coli NIHJ JC-2): 0.20 µg/mL (≈ 0.568 µM); MIC [7, 32]: ≤ 0.05 µg/mL; MIC [20, 33]: ≤ 0.05 µg/mL; Minimum inhibitory concentration ([13]; Serratia marcescens IID 618): 1.56 µg/mL (≈ 4.43 µM); Minimum inhibitory concentration [14]: 0.20 µg/mL (≈ 0.568 µM); MIC [15, 35]: 0.78 µg/mL (≈ 2.21 µM); Minimum inhibitory concentration [17]: 0.20 µg/mL (≈ 0.568 µM)
8 | CCn1cc(C(=O)O)c(=O)c2cc(F)c(N3CCCC(O)C3)c(F)c21 (stereo not shown) [Example 10, 1-Ethyl-6,8-difluoro-1,4-dihydro-7-(3-hydroxy-1-piperidinyl)-4-oxoquinoline-3-carboxylic acid] | 1.56 (≈ 4.43 µM) | – | ≤ 0.05 | – | 6.25 (≈ 17.7 µM) | – | – | – | 1.56 (≈ 4.43 µM) | – | 0.78 (≈ 2.21 µM) | 6.25 (≈ 17.7 µM) | – | 0.2 (≈ 0.568 µM) | – | – | 0.78 (≈ 2.21 µM) | 0.78 (≈ 2.21 µM) | 25 (≈ 71 µM) | – | MIC [2, 29]: 3.13 µg/mL (≈ 8.88 µM); MIC [4, 30]: 1.56 µg/mL (≈ 4.43 µM); MIC [7, 32]: 0.1 µg/mL (≈ 0.284 µM); MIC [20, 33]: 0.1 µg/mL (≈ 0.284 µM); MIC ([10]; V1, Pseudomonas aeruginosa V-1): 25 µg/mL (≈ 71 µM); MIC [13, 34]: 3.13 µg/mL (≈ 8.88 µM); MIC [15, 35]: 1.56 µg/mL (≈ 4.43 µM)
9 | Cl.O=C(O)c1cn(CCO)c2c(F)c(N3CCNCC3)c(F)cc2c1=O [Example 14, 6,8-Difluoro-1,4-dihydro-1-(2-hydroxyethyl)-4-oxo-7-(1-piperazinyl)-quinoline-3-carboxylic acid hydrochloride] | 25 | 100 | 3.13 | 0.2 | 0.39 | 0.39 | 0.39 | – | – | – | 12.5 | 0.39 | 6.25 | 12.5 | 0.39 | 25 | 0.39 | 0.2 | 12.5 | 0.39 | –
